Tests used:
HCT116 cells = test: High-throughput resazurin (Alamar blue) cytotoxicity / antiproliferative assay on tumor HCT116 cells; format: cell-based, human; settings: for effect on proliferation of HCT116 cells: dose-response curves (Figure S4)
Protocol: (§1) A colon adenocarcinoma (HCT116) and normal human lung fibroblast (MRC-5) cell lines were purchased from the American Type Culture Collection (ATCC, Manassas, VA). HCT116 cells were maintained in McCoy's 5a Modified Medium supplemented with 10% FBS, 100 units/ml penicillin, and 100 µg/ml streptomycin at 37°C in a humidified 5% CO2 incubator. Subculturing was done using 1∶5 ratio twice a week. MRC-5 cells were maintained in DMEM supplemented with 10% FBS, 100 units/ml penicillin, and 100 µg/ml streptomycin at 37°C in a humidified 5% CO2 incubator. Subculturing was done using 1∶3 ratio twice a week. A cell bank was established for the cell lines used during the differential toxicity screening campaign.
The high-throughput in vitro assay for measuring toxicity and antiproliferative effects of small molecules was implemented as described earlier. Cell lines were grown in culture flasks to 90% confluences, then harvested in counted cell density and seeded into 384-well microtiter plates. Test compounds were then added in various concentrations (in 2% DMSO final concentration) and incubated with the cells in CO2 incubators at 37°C for 48 h. […] During this period, FBS content of the medium was decreased to avoid the masking effect of FBS on toxicity. Detection of viability is based on the reduction of resazurin (Alamar blue) by living cells, resulting in an increased fluorescent signal. For the transformation of the assay into a high-throughput format, a Beckman Biomek liquid handling system and a Wallac Victor plate reader were used. Protocols needed for handling the 384-well plates were established for both single-concentration screening and dose-response curve determination. A plate map was used for the validation of the assay on 384-well plates, which is suitable for the determination of dose-response curves for 16 compounds at the same time using 6 concentrations in triplicate. This experiment was run in parallel on 5 plates and repeated three times on different days. From the dose-response curves, IC50 values were determined and analyzed. […] Based on the established assay protocol, single-point screenings were done at 50 µM compound concentration in duplicate. Likewise, IC50 values were obtained from the toxicity dose-response curves from six compound concentrations in duplicate and calculated with Microcal Origin 5.0.

MRC-5 cells = test: High-throughput resazurin (Alamar blue) cytotoxicity / antiproliferative assay on normal MRC-5 cells; format: cell-based, human; settings: dose-response curves (Figure S4)
Protocol: as §1, with “A cell bank was established for the cell lines used during the differential toxicity screening campaign.” left out
The high-throughput in vitro assay for measuring toxicity and antiproliferative effects of small molecules was implemented as described earlier. Cell lines were grown in culture flasks to 90% confluences, then harvested in counted cell density and seeded into 384-well microtiter plates. […] For the transformation of the assay into a high-throughput format, a Beckman Biomek liquid handling system and a Wallac Victor plate reader were used. […] From the dose-response curves, IC50 values were determined and analyzed. To test the reproducibility and robustness of the assay for high-throughput screening, Z′ factors (∼0.72) and S/B ratios (∼10) were determined and the respective plate-to-plate and day-to-day coefficients of variation found to be 5.0%, 2.7%, 1.7% and 5.6%. […]

colon HCT116 cell lines = tested on: colon HCT116 cell lines; parameters: method as in PMID 19933261; settings: cited from earlier work
[1] = biological target: amine oxidase flavin-containing B enzyme (MAO-B); parameters: method as in PMID 19933261; settings: reported in PubChem; cited from earlier work
HCT116 cell lines = tested on: HCT116 cell lines; parameters: method as in PMID 21617858; settings: read-out: IC50, growth of HCT116 cell lines; cited from earlier work
HCT116 cell = tested on: HCT116 cell; parameters: method as in PMID 19139018; settings: cited from earlier work

C=CCNC1=C2C[C@@H](C)C[C@H](OC)[C@H](O)[C@@H](C)/C=C(\C)[C@H](OC(N)=O)[C@@H](OC)/C=C\C=C(/C)C(=O)NC(=CC1=O)C2=O [17AAG, 17-(allylamino)-17-demethoxygeldanamycin]
IC50 (HCT116 cells; 48 h incubation, dose-response, six concentrations in duplicate): 200 nM | fold selectivity relative to the antiproliferative effect on MRC-5 cells (HCT116 cells; IC50(MRC-5)/IC50(HCT116)): 93 fold | effect on proliferation of HCT116 cells (HCT116 cells): inhibited the proliferation of HCT116 cells in a dose dependent manner | effect on MRC-5 cells (MRC-5 cells): little or no effect

O=C1c2ccccc2-c2nc(-c3cccc([N+](=O)[O-])c3)nnc21 [NSC680350]
pGI50 for colon HCT116 cell lines reported in PubChem (colon HCT116 cell lines): 4.64 | IC50 [1]: 80 nM | pGI50 obtained in this work on HCT116 cell lines (HCT116 cells): 5.19 | GI50 (HCT116 cells; dose-response curve, Figure S5, read-out: GI50 on HCT116 cell lines): 6400 nM

O=C(CCCCCCC(=O)Nc1ccccc1)NO [SAHA, suberoylanilide hydroxamic acid]
effect on proliferation of HCT116 cells (HCT116 cells): inhibited the proliferation of HCT116 cells in a dose dependent manner | effect on MRC-5 cells (MRC-5 cells): little or no effect

CN(C)C/C=C/C(=O)Nc1cc2c(Nc3ccc(F)c(Cl)c3)ncnc2cc1O[C@H]1CCOC1 [afatinib]
IC50 (HCT116 cell lines): 1620 nM

O=C(c1ccc(OCCN2CCCCC2)cc1)c1c(-c2ccc(O)cc2)sc2cc(O)ccc12 [raloxifene]
inhibition of HCT116 cell growth (HCT116 cell): inhibit HCT116 cell growth in a dose-dependent manner

Source: publication PMC3338416, “A Chemocentric Approach to the Identification of Cancer Targets” (PLoS ONE, 2012)
